Results taken from PubChem BioAssay AID330 (DTP/NCI, 2004).
Several values for one entry are separate records, joined by “and”; a condition that tells them apart may be missing. Equal values may be shown once. Toxic doses and inconclusive results are not listed. The calls were made as follows: active = survival T/C of 150% or more; inactive = T/C below 125% in these data.

Test system: P388 leukemia ip, CD2F1 mice, survival T/C
Assay: NCI In Vivo Anticancer Drug Screen. Data for tumor model P388 Leukemia (intraperitoneal) in CD2F1 (CDF1) mice
Details: endpoint: median survival time, higher = longer survival
Method in brief: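 Mice carrying the transplanted tumor received test compound or vehicle. Survival was recorded in each group, and the value is the treated-group measurement divided by that of the vehicle-treated control group.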

[1] = dose: 60.0 mg/kg/injection, schedule: Q01DX005 (ip), vehicle: saline with Tween-80
[2] = dose: 120.0 mg/kg/injection, schedule: Q01DX005 (ip), vehicle: saline with Tween-80
[3] = dose: 240.0 mg/kg/injection, schedule: Q01DX005 (ip), vehicle: saline with Tween-80
[4] = dose: 50.0 mg/kg/injection, schedule: Q01DX005 (ip), vehicle: saline with Tween-80
[5] = dose: 100.0 mg/kg/injection, schedule: Q01DX005 (ip), vehicle: saline with Tween-80
[6] = dose: 200.0 mg/kg/injection, schedule: Q01DX005 (ip), vehicle: saline with Tween-80

Measured: T/C

OC1CC2OC2C1O (configuration not stated)
inactive: dose: 60.0 mg/kg/injection, schedule: Q01DX005 (ip), vehicle: saline 103 % of control | dose: 120.0 mg/kg/injection, schedule: Q01DX005 (ip), vehicle: saline 111 % of control | dose: 240.0 mg/kg/injection, schedule: Q01DX005 (ip), vehicle: saline 111 % of control

CCOCCOC(=O)c1nc2c(N)nc(-c3ccccc3)nc2nc1N
inactive: dose: 15.0 mg/kg/injection, schedule: Q01DX009 (ip), vehicle: saline with Tween-80 98 % of control | dose: 30.0 mg/kg/injection, schedule: Q01DX009 (ip), vehicle: saline with Tween-80 98 % of control | dose: 60.0 mg/kg/injection, schedule: Q01DX009 (ip), vehicle: saline with Tween-80 91 % of control

N#CC(C#N)=C(c1ccccc1)c1ccccc1
inactive: dose: 50.0 mg/kg/injection, schedule: Q01DX009 (ip), vehicle: Klucel (hydroxypropylcellulose) (HPC) 95 % of control | dose: 100.0 mg/kg/injection, schedule: Q01DX009 (ip), vehicle: Klucel (hydroxypropylcellulose) (HPC) 110 % of control | dose: 200.0 mg/kg/injection, schedule: Q01DX009 (ip), vehicle: Klucel (hydroxypropylcellulose) (HPC) 100 % of control

CSC1C(=O)N2CCCc3cccc1c32 (configuration not stated)
inactive: [1] 105 % of control | [2] 96 % of control | [3] 96 % of control

Cc1cc(=O)c2cc3ccc4cccc5ccc(c2[nH]1)c3c45
inactive: [4] 98 % of control | [5] 103 % of control | [6] 100 % of control

COC(=O)C1(C)CCCC2(C)C3=CC(=O)OC3(OC)CCC12 (configuration not stated)
inactive: dose: 2.5 mg/kg/injection, schedule: Q01DX009 (ip), vehicle: saline with Tween-80 107 % of control | dose: 5.0 mg/kg/injection, schedule: Q01DX009 (ip), vehicle: saline with Tween-80 101 % of control | dose: 10.0 mg/kg/injection, schedule: Q01DX009 (ip), vehicle: saline with Tween-80 103 % of control

CCCCC1(C(O)CC)Sc2ccccc2N1C (configuration not stated)
inactive: [1] 100 % of control | [2] 101 % of control | [3] 110 % of control

CCCC1N=C(N)N=C(N)N1c1ccc(OC)cc1 (configuration not stated)
inactive: dose: 12.5 mg/kg/injection, schedule: Q01DX005 (ip), vehicle: saline with Tween-80 100 % of control | dose: 25.0 mg/kg/injection, schedule: Q01DX005 (ip), vehicle: saline with Tween-80 103 % of control | [4] 101 % of control and 106 % of control

Nc1cc(Cl)c2[nH]c(-c3ccccc3)nc2n1
inactive: dose: 50.0 mg/kg/injection, schedule: Q01DX001 (ip), vehicle: saline with Tween-80 96 % of control | dose: 100.0 mg/kg/injection, schedule: Q01DX001 (ip), vehicle: saline with Tween-80 94 % of control

CC(=O)NC1C(Nc2ccc(S(=O)(=O)NC(C)=O)cc2)OC(CO)C(O)C1O (configuration not stated)
inactive: dose: 50.0 mg/kg/injection, schedule: Q01DX005 (ip), vehicle: saline 100 % of control | dose: 100.0 mg/kg/injection, schedule: Q01DX005 (ip), vehicle: saline 97 % of control | dose: 200.0 mg/kg/injection, schedule: Q01DX005 (ip), vehicle: saline 97 % of control

COC(=O)[CH2][Sn]([CH2]C(=O)OC)([CH]1CCCCC1)[CH]1CCCCC1
inactive: dose: 1.56 mg/kg/injection, schedule: Q01DX005 (ip), vehicle: Klucel (hydroxypropylcellulose) (HPC) 104 % of control | dose: 3.12 mg/kg/injection, schedule: Q01DX005 (ip), vehicle: Klucel (hydroxypropylcellulose) (HPC) 88 % of control | dose: 6.25 mg/kg/injection, schedule: Q01DX005 (ip), vehicle: Klucel (hydroxypropylcellulose) (HPC) 111 % of control and 88 % of control

CCCCCCCCCCC(N)P(=O)(O)O (configuration not stated)
inactive: dose: 12.5 mg/kg/injection, schedule: Q01DX009 (ip), vehicle: saline with Tween-80 104 % of control | dose: 25.0 mg/kg/injection, schedule: Q01DX009 (ip), vehicle: saline with Tween-80 100 % of control | dose: 50.0 mg/kg/injection, schedule: Q01DX009 (ip), vehicle: saline with Tween-80 100 % of control

O=C1CSC(c2cccc(Cl)c2)N1CCN1C(=O)CSC1c1cccc(Cl)c1 (configuration not stated)
inactive: [4] 100 % of control | [5] 93 % of control | [6] 86 % of control

CCCCCCCCCCCCCCCCCC[N+]1(CC)CCOCC1
inactive: dose: 0.78 mg/kg/injection, schedule: Q01DX009 (ip), vehicle: saline 87 % of control and 90 % of control | dose: 1.56 mg/kg/injection, schedule: Q01DX009 (ip), vehicle: saline 106 % of control and 87 % of control and 88 % of control | dose: 3.12 mg/kg/injection, schedule: Q01DX009 (ip), vehicle: saline 111 % of control and 87 % of control and 88 % of control | dose: 25.0 mg/kg/injection, schedule: Q01DX009 (ip), vehicle: saline 86 % of control | dose: 50.0 mg/kg/injection, schedule: Q01DX009 (ip), vehicle: saline 96 % of control | dose: 100.0 mg/kg/injection, schedule: Q01DX009 (ip), vehicle: saline 88 % of control | dose: 200.0 mg/kg/injection, schedule: Q01DX009 (ip), vehicle: saline 100 % of control

C[C@H]1CCC/C=C/[C@@H]2C[C@H](O)C[C@H]2[C@H](O)/C=C/C(=O)O1
inactive: dose: 100.0 mg/kg/injection, schedule: Q04DX003 (ip), vehicle: Klucel (hydroxypropylcellulose) (HPC) 104 % of control | dose: 200.0 mg/kg/injection, schedule: Q04DX003 (ip), vehicle: Klucel (hydroxypropylcellulose) (HPC) 90 % of control
